Reference: patent publication US20130143869A1, “USE OF A CATIONIC AMPHIPHILIC DRUG FOR THE PREPARATION OF A FORMULATION FOR THE REDUCTION OF SUBCUTANEOUS ADIPOSE TISSUE” (Merz Pharma GmbH & CO. KGaA, priority 2010, published 2013)
Counter-ions that a name gives are not always drawn.

Experiments:
human adipocyte cells [1] = assay: Membrane integrity: LDH release from human adipocytes (LDH assay); assay type: cell-based; conditions: for Rel. max. LDH release [%] 48 hrs: Example 1, 48 hrs, relative to Triton-x 100 maximal LDH release; for IC50: read-out: IC50 48 hrs LDH, Example 2, 48 hrs
Protocol: (§1) HWP were obtained in passage two and differentiated in vitro to mature adipocytes. Briefly, cells were initially cultured in preadipocyte growth medium at 37° C. and 5% CO2 to 70-80% confluency. Then, cells were seeded at 40,000 cells/ml into 96-well flat bottom tissue culture plates and incubated overnight to allow attachment. Differentiation was initiated by changing the medium to preadipopcyte differentiation medium for an additional 72 hrs. After differentiation was induced, the medium was replaced by adipocyte nutrition medium that was refreshed every 2-3 days over a period of 14 days until termination of differentiation. Differentiation status was checked via nile red staining of control cells.
(§2) For the cytotoxicity assays in this study pre-adipocytes were seeded at 40,000 cells/ml into a 96-well microtiter flat bottom plate. The test items were prepared in separate plates starting with the double concentrated maximal test concentration followed by a 1:2 serial dilution (Chloroquine and Fluoxetine 1:3) and then added to the cells. The test items were tested at 6 replicates/concentration. Each plate included negative controls (media plus solvent, 6 replicates), a drug interference control (all concentrations, duplicates), a background control (14 replicates), a positive (=cytotoxic) control (6 replicates doxorubicin, 1 μM final) and a positive control for maximal LDH-release (2 replicates, 2% Triton-x 100 final).
(§3) Relative cell viability was determined after 48 hrs exposure based on metabolic activity (i.e. resazurin conversion). Using a Victor^3 1420 Multilabel Counter, the resazurin conversion to the fluorescent resorufin by metabolically active cells was recorded at 560Ex/590Em. Membrane integrity was measured after 6 hrs and 48 hrs and the enzymatic activity of released LDH in the cell supernatant after 30 min of incubation at 492 nmabsorption/690 nmreference by a spectrophotometer. The volume withdrawn from the cultures for the LDH-assay was not replaced to keep cells in a less disturbed environment. The assay was conducted in a multiplexed format.
For the dose-response relationship, absolute absorption (OD treated wells−background) was plotted against the test item concentrations representing LDH leakage from the cells. For a better estimation of the test items' potential influencing the membrane integrity, relative, maximal LDH release in percent (see Table 2) was also calculated according to the following formula: […]
(§4) The effects on cytotoxicity in human adipocyte cells of a further 9 compounds were tested. The experimental set-up was identical to the one in example 1.

human adipocyte cells [2] = assay: Cytotoxicity assay: metabolic activity (resazurin conversion) of human adipocytes; assay type: cell-based
Protocol: as §1
The test items 1 to 8 were prepared according to Table 1 to yield respective stock solutions. Said stock solutions were further diluted in assay media to obtain the double concentrated working solutions, which were subsequently diluted 1:2 in the final assay. […] Deoxycholate Na was selected as “reference compound”.
as §2, §3
In order to derive meaningful IC50 values from the primary data, the entire biological window of activity ranging from 0% to 100% viability should be covered and the resolution has to be sufficient. To improve data quality, the serial dilution factor used in previous experiments was reduced to a 1:2 and 1:3 dilution. […] IC50 (half maximal inhibitory concentration, calculated via Sigma Plot 10) values were determined for each test substance 1 to 8.
as §4

subcutaneous fat-tissue = conditions: rats
Human white adipocytes = assay: Apoptosis/necrosis detection, Annexin V-FITC/PI flow cytometry; assay type: cell-based
Text: The apoptotic program is characterized by certain morphologic features. Loss of plasma membrane asymmetry is a well established indicator for apoptotic cells. In apoptotic cells, the membrane phospholipid phosphatidylserine (PS) is translocated from the inner to the outer leaflet of the plasma membrane, thereby exposing PS to the external environment. In general, this PS translocation is preceded by caspase activation. Annexin V labelled with FITC is a Ca^2+ dependent phospholipid-binding protein with high affinity for PS and binds to cells with externalized PS. Cells stained with Annexin V*FITC are therefore considered in an early apoptotic stage.
Staining with Annexin V-FITC is typically used in conjunction with a vital dye such as propidium iodide (PI) to allow discrimination between early apoptotic and necrotic cells. Necrotic dying cells are PI positive only. Cells that are viable are Annexin V and PI negative; cells that entered apoptosis are Annexin V positive and PI negative and cells that are in post apoptotic and/or necrotic phase are both Annexin V and PI positive.
Human white adipocytes that had been differentiated in vitro from pre-adipocytes as describe above were used. Measurements were performed after 5 hrs to catch early apoptotic/necrotic events and after 24 hrs and 48 hrs for later stages. Naringenin at 500 μM (reported to induce apoptosis in adipocytes) was used as positive control and media plus solvent was used as negative control. Each compound was tested in three different concentrations. […] Two more concentrations, one below and one above the IC50 were added.
Flow cytometry was performed with a dual laser FC500. After completion of the staining procedure, tubes were grouped into a FC500 carousel for semi-automated data acquisition. Cells were first acquired in “Setup” mode to tune the parameters FS, SS, FL1 and FL2. After completion of the setup, baseline compensation was switched on and cells were acquired. Cells were acquired without life-gate but using FS threshold to exclude debris. All cells were acquired using individually corrected settings.
After completion of data acquisition, analysis was done using the CXP software. If necessary, software-based post acquisition compensation was performed to fine-correct for fluorescence overlap not adjusted for during the acquisition phase. Quadrant markers were set based on the negative controls.

[3] = Homo sapiens, Adipocyte, read-out: IC50 (metabolic activity after 48 hrs), Example 1, 48 hrs exposure, resazurin
[4] = 1 mg/mL, 300 μL s.c. Day 1, 7, 28, histology day 29
[5] = read-out: IC50 (metabolic activity after 48 hrs), Example 1, 48 hrs exposure, resazurin

With `CN(C)CCC[C@@]1(c2ccc(F)cc2)OCc2cc(C#N)ccc21` [Test substance 3, Escitalopram oxalate] the “Rel. max. LDH release [%] 48 hrs” value (human adipocyte cells [1]) was 88.0% and the IC50 (human adipocyte cells [2]; [3]) was 491 µM.
For `CNCCC(Oc1ccc(C(F)(F)F)cc1)c1ccccc1` (centres unmarked) [Test substance 4, Fluoxetine HCl], the “degree of histological changes at administration sites (subcutaneous connective and/or adipose tissue)” value (subcutaneous fat-tissue; [4]) was “minimal or mild in degree”, the “edema at administration sites” value (subcutaneous fat-tissue; [4]) was “minimal or mild” and the “fibrosis at administration sites” value (subcutaneous fat-tissue; [4]) was “minimal or mild”. For the same molecule, the “haemorrhage at administration sites” value (subcutaneous fat-tissue; [4]) was “minimal or mild”, the “infiltrates of granulocytes at administration sites” value (subcutaneous fat-tissue; [4]) was “minimal” and the “infiltrates of mononuclear cells at administration sites” value (subcutaneous fat-tissue; [4]) was “minimal to moderate”. For the same molecule, the “single cell death of inflammatory cells and/or connective tissue at administration sites” value (subcutaneous fat-tissue; [4]) was “minimal”, the “adipocytolysis (concluded from inflammatory reaction)” value (subcutaneous fat-tissue; repetitive s.c. injection) was “causes adipocytolysis” and the “Rel. max. LDH release [%] 48 hrs” value (human adipocyte cells [1]) was 101.0%. The IC50 (human adipocyte cells [2]; [3]) was 52 µM, the “primary mode of cell death” value (Human white adipocytes) was “fast and strong apoptosis induction” and the “Early Apoptosis [A-V*/PI*]” value (Human white adipocytes; 40 μM, 5 hrs) was 26.9. The “Necrosis/ Late Apoptosis [A-V*/PI*]” value (Human white adipocytes; 40 μM, 5 hrs) was 0, the “Necrosis/ Late Apoptosis [A-V*/PI*]” value (Human white adipocytes; 40 μM, 24 hrs) was 2.6 and the “Normal [A-V*/PI]” value (Human white adipocytes; 40 μM, 24 hrs) was 49.9. For the same molecule, the “Early Apoptosis [A-V*/PI*]” value (Human white adipocytes; 40 μM, 48 hrs) was 22.7, the “Necrosis/ Late Apoptosis [A-V*/PI*]” value (Human white adipocytes; 40 μM, 48 hrs) was 7.7 and the “Early Apoptosis [A-V*/PI*]” value (Human white adipocytes; 60 μM, 5 hrs) was 58.5. For the same molecule, the “Necrosis/ Late Apoptosis [A-V*/PI*]” value (Human white adipocytes; 60 μM, 5 hrs) was 1.3, the “Normal [A-V*/PI]” value (Human white adipocytes; 60 μM, 5 hrs) was 45.2 and the “Early Apoptosis [A-V*/PI*]” value (Human white adipocytes; 60 μM, 24 hrs) was 78.7. The “Necrosis/ Late Apoptosis [A-V*/PI*]” value (Human white adipocytes; 60 μM, 24 hrs) was 5.5, the “Normal [A-V*/PI]” value (Human white adipocytes; 60 μM, 24 hrs) was 14.7 and the “Early Apoptosis [A-V*/PI*]” value (Human white adipocytes; 60 μM, 48 hrs) was 37.9. The “Necrosis/ Late Apoptosis [A-V*/PI*]” value (Human white adipocytes; 60 μM, 48 hrs) was 19.8, the “Normal [A-V*/PI]” value (Human white adipocytes; 60 μM, 48 hrs) was 42.3 and the cells apoptotic (Human white adipocytes; 80 μM, 5 h) was “more than 50%”. The “Necrosis/ Late Apoptosis [A-V*/PI*]” value (Human white adipocytes; 80 μM, 5 hrs) was 1.6, the “Normal [A-V*/PI]” value (Human white adipocytes; 80 μM, 5 hrs) was 47 and the “Early Apoptosis [A-V*/PI*]” value (Human white adipocytes; 80 μM, 24 hrs) was 41.9. The “Necrosis/ Late Apoptosis [A-V*/PI*]” value (Human white adipocytes; 80 μM, 24 hrs) was 44.1, the “Normal [A-V*/PI]” value (Human white adipocytes; 80 μM, 24 hrs) was 14 and the “Necrosis/ Late Apoptosis [A-V*/PI*]” value (Human white adipocytes; 80 μM, 48 hrs) was 42.2. For the same molecule, the “Normal [A-V*/PI]” value (Human white adipocytes; 80 μM, 48 hrs) was 2.7 and the “apoptosis/necrosis induction in human adipocytes (in words)” value (Human white adipocytes; 5, 24, 48 hrs, concentrations as in Table 4) was “rapidly induced strong apoptosis”.
In the case of `COc1ccc([C@@H]2Sc3ccccc3N(CCN(C)C)C(=O)[C@@H]2OC(C)=O)cc1.Cl` [Test substance 6, Diltiazem HCl], the “Rel. max. LDH release [%] 48 hrs” value (human adipocyte cells [1]) is reported as 94.5% and the IC50 (human adipocyte cells [2]; [5]) is reported as 800 µM.
`CC(CCc1ccccc1)NCC(O)c1ccc(O)c(C(N)=O)c1` (centres unmarked) [Test substance 7, Labetalol HCl] was tested, and the “Rel. max. LDH release [%] 48 hrs” value (human adipocyte cells [1]) was 101.1% and the IC50 (human adipocyte cells [2]; [3]) was 659 µM.
With `C[C@H](CCC(=O)[O-])[C@H]1CC[C@H]2[C@@H]3CC[C@@H]4C[C@H](O)CC[C@]4(C)[C@H]3C[C@H](O)[C@]12C.[Na+]` [Test substance 8, Deoxycholate Na] the “Rel. max. LDH release [%] 48 hrs” value (human adipocyte cells [1]) was 98.0%, the IC50 (human adipocyte cells [1]) was ~379 µM and the IC50 (human adipocyte cells [2]; read-out: IC50 48 hrs Resazurin, Example 2, 48 hrs, listed as Deoxycholate) was ~616 µM. For the same molecule, the IC50 (human adipocyte cells [2]; read-out: IC50 48 hrs Resazurin, Example 2, 48 hrs, listed as deoxycholate) was 616 µM and the IC50 (human adipocyte cells [2]; [5]) was 446 µM.
With `Clc1ccc(C(Cn2ccnc2)OCc2ccsc2Cl)c(Cl)c1` (centres unmarked) [Thioconazole] the IC50 (human adipocyte cells [1]) was ~7.4 µM and the IC50 (human adipocyte cells [2]; read-out: IC50 48 hrs Resazurin, Example 2, 48 hrs) was 10.5 µM.
Molecule `CN1CCN(CCCN2c3ccccc3Sc3ccc(C(F)(F)F)cc32)CC1` [Trifluoperazine] has an IC50 (human adipocyte cells [1]; Homo sapiens, Adipocyte) of ~14.3 µM and an IC50 (human adipocyte cells [2]; Homo sapiens, Adipocyte, read-out: IC50 48 hrs Resazurin, Example 2, 48 hrs) of 17.4 µM.
